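Assay format: 96-well plates, 48-hour exposure. GI50 = concentration required for 50% inhibition of growth.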 Calls of active or inactive are those of the source. Rule as the data show it: active = GI50 up to about 1.1 µM and inactive = higher.
What was measured:
Experiment in all cases: DTP human tumour cell line panel, 48 h
HOP-62 = system: HOP-62
NCI-H522 = system: NCI-H522
K562 = system: K562
NCI/ADR-RES = system: NCI/ADR-RES
OVCAR-5 = system: OVCAR-5
SNB-19 = system: SNB-19
LOX IMVI = system: LOX IMVI
SN12C = system: SN12C
RPMI-8226 = system: RPMI-8226
SK-OV-3 = system: SK-OV-3
IGROV-1 = system: IGROV-1
NCI-H460 = system: NCI-H460
SK-MEL-2 = system: SK-MEL-2
HCC 2998 = system: HCC 2998
HT-29 = system: HT-29
SW-620 = system: SW-620
MCF7 = system: MCF7
KM12 = system: KM12
SF-268 = system: SF-268
NCI-H226 = system: NCI-H226

Structure (SMILES) | GI50 (HOP-62) | GI50 (NCI-H522) | GI50 (K562) | GI50 (NCI/ADR-RES) | GI50 (OVCAR-5) | GI50 (SNB-19) | GI50 (LOX IMVI) | GI50 (SN12C) | GI50 (RPMI-8226) | GI50 (SK-OV-3) | GI50 (IGROV-1) | GI50 (NCI-H460) | GI50 (SK-MEL-2) | GI50 (HCC 2998) | GI50 (HT-29) | GI50 (SW-620) | GI50 (MCF7) | GI50 (KM12) | GI50 (SF-268) | GI50 (NCI-H226)
CCCCCCCCCCCCCCCCOCC(CCl)OP(=O)(O)OP(=O)(O)OCC1OC(n2ccc(N)nc2=O)C(O)C1O (stereo unspecified) | > 100 µM (inactive) | > 100 µM (inactive) | > 100 µM (inactive) | > 100 µM (inactive) | > 100 µM (inactive) | > 100 µM (inactive) | > 100 µM (inactive) | > 100 µM (inactive) | > 100 µM (inactive) | > 100 µM (inactive) | > 100 µM (inactive) | > 100 µM (inactive) | > 100 µM (inactive) | > 100 µM (inactive) | > 100 µM (inactive) | > 100 µM (inactive) | > 100 µM (inactive) | > 100 µM (inactive) | > 100 µM (inactive) | > 100 µM (inactive)
O=[N+]([O-])c1cccc2nc3ccccc3c(NCCCN3CCCCC3)c12 | 0.0125 µM (active) | < 0.01 µM (active) | < 0.0123 µM (active) | 0.418 µM (active) | 0.0208 µM (active) | 0.0233 µM (active) | 0.0194 µM (active) | < 0.0105 µM (active) | < 0.01 µM (active) | 0.028 µM (active) | < 0.0104 µM (active) | < 0.01 µM (active) | 0.0148 µM (active) | < 0.01 µM (active) | < 0.01 µM (active) | < 0.01 µM (active) | < 0.01 µM (active) | 0.014 µM (active) | 0.0191 µM (active) | 0.0169 µM (active)
N=c1oc2ccccc2cc1-c1nc2ccccc2c(=O)[nH]1 | 22.7 µM (inactive) | 14.7 µM (inactive) | > 100 µM (inactive) | 72.6 µM (inactive) | > 100 µM (inactive) | 30.1 µM (inactive) | 54.5 µM (inactive) | > 100 µM (inactive) | > 100 µM (inactive) | > 100 µM (inactive) | 6 µM (inactive) | 64.7 µM (inactive) | 58.9 µM (inactive) | 90.2 µM (inactive) | 39.1 µM (inactive) | 72.3 µM (inactive) | 19.5 µM (inactive) | 39.8 µM (inactive) | 29 µM (inactive) | 29.7 µM (inactive)
Cc1ccc2nc(C(=O)O)c(=O)[nH]c2c1 | > 100 µM (inactive) | > 100 µM (inactive) | > 100 µM (inactive) | > 100 µM (inactive) | > 100 µM (inactive) | > 100 µM (inactive) | > 100 µM (inactive) | > 100 µM (inactive) | > 100 µM (inactive) | > 100 µM (inactive) | > 100 µM (inactive) | > 100 µM (inactive) | > 100 µM (inactive) | > 100 µM (inactive) | > 100 µM (inactive) | > 100 µM (inactive) | > 100 µM (inactive) | > 100 µM (inactive) | > 100 µM (inactive) | > 100 µM (inactive)
COc1ccc(COC(=O)NNC(=O)C2CSC(c3ccccc3)N2C(C)=O)cc1 (stereo unspecified) | > 100 µM (inactive) | > 100 µM (inactive) | > 100 µM (inactive) | > 100 µM (inactive) | > 100 µM (inactive) | > 100 µM (inactive) | > 100 µM (inactive) | > 100 µM (inactive) | > 100 µM (inactive) | > 100 µM (inactive) | > 100 µM (inactive) | > 100 µM (inactive) | > 100 µM (inactive) | > 100 µM (inactive) | > 100 µM (inactive) | > 100 µM (inactive) | > 100 µM (inactive) | > 100 µM (inactive) | > 100 µM (inactive) | > 100 µM (inactive)
O=c1c2cc([N+](=O)[O-])cnc2sn1-c1ccc(Br)cc1 | 36.1 µM (inactive) | 5.5 µM (inactive) |  | 33.9 µM (inactive) | 38.4 µM (inactive) | 38.8 µM (inactive) | 19.3 µM (inactive) | 72.6 µM (inactive) | 26.6 µM (inactive) | 14.8 µM (inactive) | 81.7 µM (inactive) | 66.8 µM (inactive) | 32.7 µM (inactive) | 91 µM (inactive) | 27.2 µM (inactive) | 28.3 µM (inactive) | 26 µM (inactive) | 40.8 µM (inactive) | 27.5 µM (inactive) | 73.6 µM (inactive)
Cc1c(-c2ccccc2)c(-c2ccc(OCCN(C)C)cc2)n2ccccc12 | 13.1 µM (inactive) | 9.06 µM (inactive) | 1.84 µM (inactive) | 13.2 µM (inactive) | 15 µM (inactive) | 12 µM (inactive) | 2.23 µM (inactive) | 12.1 µM (inactive) | 2.69 µM (inactive) | 15.8 µM (inactive) | 10.1 µM (inactive) | 2.51 µM (inactive) | 7.74 µM (inactive) | 1.69 µM (inactive) | 1.82 µM (inactive) | 5.5 µM (inactive) | 7.62 µM (inactive) | 3.82 µM (inactive) | 14.3 µM (inactive) | 15.2 µM (inactive)
COC1=C(OC)C(=O)C(Sc2ccc3ccccc3c2)=CC1=O | 13.2 µM (inactive) | 1.82 µM (inactive) | 2.99 µM (inactive) | 14.7 µM (inactive) | 15.6 µM (inactive) | 14.1 µM (inactive) | 3.54 µM (inactive) | 7.87 µM (inactive) | 0.678 µM (active) | 16.1 µM (inactive) | 12.4 µM (inactive) | 7.67 µM (inactive) | 13.6 µM (inactive) | 11.6 µM (inactive) | 14.7 µM (inactive) | 3.5 µM (inactive) | 4.25 µM (inactive) | 5.86 µM (inactive) | 9.86 µM (inactive) | 6.03 µM (inactive)
CCN(CC)CCN(C)c1ccc(CO)c2c1c(=O)c1ccccc1[s+]2[O-] (stereo unspecified) | 4.52 µM (inactive) | 2.02 µM (inactive) | 3.83 µM (inactive) | 1.74 µM (inactive) | 11.4 µM (inactive) | 13.2 µM (inactive) | 1.78 µM (inactive) | 15.2 µM (inactive) | 2.83 µM (inactive) | 16.1 µM (inactive) | 16.9 µM (inactive) | 4.62 µM (inactive) | 19.9 µM (inactive) | 1.43 µM (inactive) | 2.11 µM (inactive) | 1.88 µM (inactive) | 9.77 µM (inactive) | 1.98 µM (inactive) | 16.5 µM (inactive) | 17.7 µM (inactive)
CCOC(=O)c1cnccc1CC1(C#N)c2ccccc2C=CN1C(=O)c1ccccc1 (stereo unspecified) | 53.2 µM (inactive) | 18.6 µM (inactive) | 6.93 µM (inactive) | 27.7 µM (inactive) | 80.2 µM (inactive) | 70 µM (inactive) | 24.1 µM (inactive) | 29 µM (inactive) | 4.91 µM (inactive) | 26.1 µM (inactive) | 17.3 µM (inactive) | 23.4 µM (inactive) | 21.6 µM (inactive) | 30.3 µM (inactive) | 12.3 µM (inactive) | 47.3 µM (inactive) | 39.2 µM (inactive) | 13.3 µM (inactive) | 23.6 µM (inactive) | 43.9 µM (inactive)
Cc1c(-c2ccccc2)c(C#N)c2nnn(-c3ccc(Cl)cc3)c(=O)n12 | 7.14 µM (inactive) | 10.9 µM (inactive) | 0.668 µM (active) | 17.6 µM (inactive) | > 100 µM (inactive) | > 100 µM (inactive) | 0.714 µM (active) | 35.2 µM (inactive) | 23.5 µM (inactive) | 89.7 µM (inactive) | 32.7 µM (inactive) | 4.83 µM (inactive) | 26.8 µM (inactive) | 10.6 µM (inactive) | 15.8 µM (inactive) | 25.2 µM (inactive) | 7.59 µM (inactive) | 24.2 µM (inactive) | 32.6 µM (inactive) | 66.7 µM (inactive)
O=C1c2ccccc2-c2nc(-c3ccncc3)cc3c2c1nc1ccccc13 | 6.55 µM (inactive) | 10.7 µM (inactive) | 16.1 µM (inactive) | > 100 µM (inactive) | 18.7 µM (inactive) | 23.6 µM (inactive) | 14.5 µM (inactive) | 15.1 µM (inactive) | 11.4 µM (inactive) | > 100 µM (inactive) | 1.07 µM (active) | 10.5 µM (inactive) | 11.3 µM (inactive) | 18.7 µM (inactive) | 24.9 µM (inactive) | 24.3 µM (inactive) | 16.5 µM (inactive) | 11.8 µM (inactive) |  | 16.6 µM (inactive)
CC1(C=O)CCC23COC4(CCC5C6(C)CCC(OC7OCC(OC8OC(CO)C(O)C(OC9OC(CO)C(O)C(O)C9O)C8OC8OCC(O)C(O)C8O)C(O)C7OC7OC(CO)C(O)C(O)C7O)C(C)(C)C6CCC5(C)C4(C)CC2O)C3C1 (stereo unspecified) | 2.13 µM (inactive) | 1.68 µM (inactive) | 3.1 µM (inactive) | 0.264 µM (active) | 1.29 µM (inactive) | 0.198 µM (active) | 1.24 µM (inactive) |  | 1.71 µM (inactive) | 1.28 µM (inactive) | 1.42 µM (inactive) | 1.29 µM (inactive) | 1.57 µM (inactive) | 1.01 µM (active) | 0.849 µM (active) | 0.628 µM (active) | 0.822 µM (active) | 0.0474 µM (active) | 1.14 µM (inactive) | 1.8 µM (inactive)
CC(=O)O[C@H]1CC[C@@]2(C)[C@@H](CC[C@@H]3[C@@H]2CC(=O)[C@@]2(C)[C@H]3C[C@@H]3CC(C)=CC(=O)[C@@H]32)C1 | 55.8 µM (inactive) | 39.5 µM (inactive) | 40.5 µM (inactive) | 59 µM (inactive) | > 100 µM (inactive) | > 100 µM (inactive) | > 100 µM (inactive) | 41 µM (inactive) | 16 µM (inactive) | > 100 µM (inactive) | > 100 µM (inactive) |  | > 100 µM (inactive) | 71.3 µM (inactive) | 31 µM (inactive) | > 100 µM (inactive) | 58.3 µM (inactive) | 57 µM (inactive) | 36.2 µM (inactive) | > 100 µM (inactive)

From ChEMBL document CHEMBL1201862, “PubChem BioAssay data set” (2004)
